{
  "source": "ChEMBL document CHEMBL4699625",
  "about": "“Callyspongiolide Is a Potent Inhibitor of the Vacuolar ATPase” (J Nat Prod, 2020)",
  "key": {"[1]": {"test": "Inhibition of V-ATpase in Saccharomyces cerevisiae […] vacuolar membranes after 10 mins by spectrophotometric based coupled enzyme assay", "format": "cell membranes, Saccharomyces cerevisiae W303, Membrane"}, "[2]": {"system": "Jurkat", "test": "Cytotoxicity against human Jurkat cells assessed as reduction in cell viability", "format": "functional, cell-based"}, "[3]": {"system": "Saccharomyces cerevisiae W303", "test": "Inhibition of V-ATpase in Saccharomyces cerevisiae W303 pdr5 deletion mutant assessed as quinacrine accumulation in the cytosol at 0.5 uM after 4 hrs by fluorescence microscopic method", "format": "subcellular"}, "[4]": {"system": "Saccharomyces cerevisiae", "test": "Growth inhibition of Saccharomyces cerevisiae W303 pdr5 deletion mutant at 0.5 uM after 2 to 3 days in ammonium iron(II) sulfate condition", "format": "functional, organism-based", "conditions": "time day 2-3"}, "[5]": {"system": "Saccharomyces cerevisiae", "test": "Antifungal activity against Saccharomyces cerevisiae W303 pdr5 deletion mutant assessed as reduction in microbial growth at 0.5 uM after 2 to 3 days", "format": "functional, organism-based", "conditions": "time day 2-3"}, "[6]": {"system": "Saccharomyces cerevisiae", "test": "Growth inhibition of Saccharomyces cerevisiae W303 at 0.5 uM after 2 to 3 days in glycerol condition relative to control", "format": "functional", "conditions": "time day 2-3, read-out: GI"}, "[7]": {"system": "Saccharomyces cerevisiae", "test": "Growth inhibition of Saccharomyces cerevisiae W303 pdr5 deletion mutant at 0.5 uM after 2 to 3 days in glycerol condition relative to control", "format": "functional", "conditions": "time day 2-3, read-out: GI"}, "[8]": {"system": "Saccharomyces cerevisiae", "test": "Growth inhibition of Saccharomyces cerevisiae W303 at 0.5 uM after 2 to 3 days in ammonium iron(II) sulfate condition", "format": "functional, organism-based", "conditions": "time day 2-3"}, "[9]": {"system": "Saccharomyces cerevisiae", "test": "Inhibition of V-ATpase in Saccharomyces cerevisiae BY4742 vacuolar membranes at 100 nM after 10 mins by spectrophotometric based coupled enzyme assay relative to control", "format": "cell membranes", "conditions": "Membrane"}, "[10]": {"system": "Saccharomyces cerevisiae W303", "test": "Inhibition of V-ATpase in Saccharomyces cerevisiae W303 assessed as quinacrine accumulation in the cytosol at 0.5 uM after 4 hrs by fluorescence microscopic method", "format": "subcellular"}, "[11]": {"system": "Saccharomyces cerevisiae", "test": "Growth inhibition of Saccharomyces cerevisiae W303 at 10 uM after 2 to 3 days in glycerol condition relative to control", "format": "functional", "conditions": "time day 2-3, read-out: GI"}, "[12]": {"system": "Saccharomyces cerevisiae", "test": "Growth inhibition of Saccharomyces cerevisiae W303 pdr5 deletion mutant at 10 uM after 2 to 3 days in glycerol condition relative to control", "format": "functional", "conditions": "time day 2-3, read-out: GI"}, "[13]": {"system": "Saccharomyces cerevisiae", "test": "Growth inhibition of Saccharomyces cerevisiae W303 at 10 uM after 2 to 3 days in ammonium iron(II) sulfate condition", "format": "functional, organism-based", "conditions": "time day 2-3"}, "[14]": {"system": "Saccharomyces cerevisiae W303", "test": "Inhibition of V-ATpase in Saccharomyces cerevisiae W303 assessed as quinacrine accumulation in the cytosol at 10 uM after 4 hrs by fluorescence microscopic method", "format": "subcellular"}, "[15]": {"system": "Saccharomyces cerevisiae", "test": "Growth inhibition of Saccharomyces cerevisiae W303 pdr5 deletion mutant at 0.5 to 10 uM after 2 to 3 days at pH 5 condition", "format": "functional, organism-based", "conditions": "dose microM 0.5-10, time day 2-3"}, "[16]": {"system": "Saccharomyces cerevisiae W303", "test": "Inhibition of V-ATpase in Saccharomyces cerevisiae W303 pdr5 deletion mutant assessed as quinacrine accumulation in the cytosol at 10 uM after 4 hrs by fluorescence microscopic method", "format": "subcellular"}, "[17]": {"system": "Saccharomyces cerevisiae", "test": "Growth inhibition of Saccharomyces cerevisiae W303 pdr5 deletion mutant at 0.5 to 10 uM after 2 to 3 days at pH 7.5 condition", "format": "functional, organism-based", "conditions": "dose microM 0.5-10, time day 2-3"}, "[18]": {"system": "Saccharomyces cerevisiae W303", "test": "Inhibition of V-ATpase in Saccharomyces cerevisiae […] vacuolar membranes at 80 nM after 10 mins by spectrophotometric based coupled enzyme assay", "format": "cell membranes", "conditions": "Membrane"}, "[19]": {"system": "Saccharomyces cerevisiae", "test": "Growth inhibition of Saccharomyces cerevisiae W303 at 0.5 to 10 uM after 2 to 3 days at pH 7.5 condition", "format": "functional, organism-based", "conditions": "dose microM 0.5-10, time day 2-3"}, "[20]": {"system": "Saccharomyces cerevisiae", "test": "Antifungal activity against Saccharomyces cerevisiae W303 assessed as reduction in microbial growth at 10 uM after 2 to 3 days", "format": "functional, organism-based", "conditions": "time day 2-3"}, "[21]": {"system": "Saccharomyces cerevisiae", "test": "Growth inhibition of Saccharomyces cerevisiae W303 at 0.5 to 10 uM after 2 to 3 days at pH 5 condition", "format": "functional, organism-based", "conditions": "dose microM 0.5-10, time day 2-3"}, "[22]": {"system": "Saccharomyces cerevisiae", "test": "Growth inhibition of Saccharomyces cerevisiae W303 pdr5 deletion mutant at 10 uM after 2 to 3 days in ammonium iron(II) sulfate condition", "format": "functional, organism-based", "conditions": "time day 2-3"}, "[23]": {"system": "Jurkat", "test": "Cytotoxicity against human Jurkat cells assessed as reduction in cell viability in presence of pan-caspase inhibitor Z-VAD-FMK relative to control", "format": "functional"}},
  "note": "Activity calls are given as the source filed them. The rule behind the calls is not given here.",
  "data": [
    {"smiles": "CO/C1=C\\C(C)=C\\[C@@H](C)[C@@H](O)[C@@H](C)C/C(C)=C/C=C/[C@H](OC)[C@@H]([C@@H](C)[C@@H](O)[C@H](C)[C@@]2(O)C[C@@H](O)[C@H](C)[C@@H](C(C)C)O2)OC1=O", "note": "[BAFILOMYCIN A1]", "values": [
      {"measurement": "IC50", "setting": "[1]", "result": 4, "unit": "nM"}
    ]},
    {"smiles": "C[C@@H]1C/C=C/C(=O)O[C@H](/C=C/C#C/C=C/C(C)(C)[C@@H](O)c2cccc(O)c2Br)[C@@H](C)/C=C/[C@H](C)C[C@H](OC(N)=O)C1", "values": [
      {"measurement": "IC50", "setting": "[2]", "result": 115, "unit": "nM"}
    ]},
    {"smiles": "C/C=C/[C@H]1O[C@@](O)([C@@H](C)[C@H](O)[C@H](C)[C@H]2OC(=O)/C(OC)=C/C(C)=C/[C@@H](C)[C@@H](O)[C@@H](CC)[C@@H](O)[C@H](C)C/C(C)=C/C=C/[C@@H]2OC)C[C@@H](O[C@H]2C[C@@H](O)[C@H](OC(N)=O)[C@@H](C)O2)[C@@H]1C", "note": "[CONCANAMYCIN A]", "values": [
      {"measurement": "inhibition", "setting": "[3]", "result": "Active"},
      {"measurement": "growth inhibition (GI)", "setting": "[4]", "result": "inactive"},
      {"measurement": "Activity", "setting": "[5]", "result": "Active"},
      {"measurement": "inhibition of growth at 0.5 µM", "setting": "[6]", "result": 100, "unit": "%"},
      {"measurement": "IC50", "setting": "[1]", "result": 3, "unit": "nM"},
      {"measurement": "inhibition of growth at 0.5 µM", "setting": "[7]", "result": 100, "unit": "%"},
      {"measurement": "growth inhibition (GI)", "setting": "[8]", "result": "inactive"},
      {"measurement": "inhibition", "setting": "[9]", "result": 75, "unit": "%"},
      {"measurement": "inhibition", "setting": "[10]", "result": "Active"}
    ]},
    {"smiles": "C[C@@H]1C/C=C\\C(=O)O[C@H](/C=C/C#C/C=C/C(C)(C)[C@@H](O)c2cccc(O)c2Br)[C@@H](C)/C=C/[C@H](C)C[C@H](OC(N)=O)C1", "values": [
      {"measurement": "inhibition of growth at 10 µM", "setting": "[11]", "result": 100, "unit": "%"},
      {"measurement": "inhibition of growth at 10 µM", "setting": "[12]", "result": 100, "unit": "%"},
      {"measurement": "growth inhibition (GI)", "setting": "[13]", "result": "inactive"},
      {"measurement": "IC50", "setting": "[2]", "result": 43, "unit": "nM"},
      {"measurement": "Activity", "setting": "[5]", "result": "Active"},
      {"measurement": "inhibition", "setting": "[14]", "result": "Active"},
      {"measurement": "growth inhibition (GI)", "setting": "[15]", "result": "Active"},
      {"measurement": "IC50", "setting": "[1]", "result": 9.91, "unit": "nM"},
      {"measurement": "inhibition", "setting": "[16]", "result": "Active"},
      {"measurement": "growth inhibition (GI)", "setting": "[17]", "result": "Active"},
      {"measurement": "inhibition", "setting": "[18]", "result": "Active"},
      {"measurement": "growth inhibition (GI)", "setting": "[19]", "result": "Active"},
      {"measurement": "Activity", "setting": "[20]", "result": "Active"},
      {"measurement": "growth inhibition (GI)", "setting": "[21]", "result": "Active"},
      {"measurement": "growth inhibition (GI)", "setting": "[22]", "result": "inactive"},
      {"measurement": "Activity", "setting": "[23]", "result": "<3", "unit": "%"}
    ]}
  ]
}
